According to patent US5236955A, “Anti-fungal agent” (Washington University, priority 1992, dated 1993):

Assays:
C. neoformans [1] = assay: Viability of C. neoformans (viable cells relative to EtOH control culture); assay type: cell-based, Cryptococcus neoformans; details: 300 μM single dose; for fungicidal / fungistatic effect on C. neoformans: screening assay; for log reduction at 300 µM: Cryptococcus neoformans, relative to 0.1% EtOH control, read-out: decrease in viable cells (converted)
Method: (§1) Panel A, survey of the effects of several oxatetradecanoic acids on the growth of C. neoformans. A culture of C. neoformans was grown at 30° C. in SAB media to midlog phase (A600 ~0.5). A single dose of fatty acid was then added to subcultures (final concentration=300 μM). EtOH(0.1%) was used as a negative control. Amphotericin B (AmB) was added (final concentraton=55 μM) as a positive control. Aliquots were withdrawn from the subcultures 0, 0.5, 2, 4, 7, 21, and 24 h after these additions and then absorbance at 600 nm was measured. All assays were done in duplicate or triplicate. A representative test is shown. Panel B, survey of the effects of oxatetradecanoic acids, dioxatetradecanoic acids and oxatridecanoic acids on the viability of C. neoformans. Fatty acid analog was added to the cultures as in Panel A. Aliquots were withdrawn 0.5, 2, 4, 7 or 8, and 24 h later and plated on SAB-agar at various dilutions to determine the number of viable organisms/ml culture. All assays were done in duplicate. Data from a representative test are expressed as the ratio of viable cells in treated cultures relative to a control culture that received 0.1% EtOH. A positive control culture received a single dose of amphotericin B (55 μM); Panel C, dose-dependent reduction in the viability of C. neoformans after addition of 4-oxatetradecanoic acid (O4) to cultures during log-phase growth at 30° C. in SAB. A single dose of the analog was given at T=0 h in the amount indicated and aliquots of the culture were withdrawn at various times to determine the number of viable cells. All assays were done in triplicate. A representative test is shown.
(§2) Saccharomyces cerevisiae strain YM2061 (MATa ura3-52 his3Δ200 ade2-101 lys2-801 met LEU2::pRY181 can1; Flick and Johnston, Mol. Cell. Biol. 10, 4757-4769 (1990), Candida albicans strain B311 (obtained from the American Type Tissue Culture, Rockville, Md.), or Cryptococcus neoformans strain L210425 (a clinical isolate that is part of the permanent culture collection of the Mycology Laboratory, Barnes Hospital, St. Louis, Mo.) were grown overnight at 30 C. The S. cerevisiae strain was incubated in YPD medium (1% bacto-yeast extract, Gibco, Long Island, N.Y.), 2% bacto-peptone (Gibco), 2% dextrose). The C. albicans and C. neoformans strains were grown in Sabouraud's media (SAB; 2% (w/v) dextrose, 1% bacto-peptone). The following morning the cultures were diluted into fresh medium to the desired density at 600 nm (early log phase), and subsequently incubated in a rotary shaker at 30° C. until an A600 =0.5 (mid log phase) was achieved. The culture was then divided into 10 ml aliquots. A single 10 μl aliquot of a stock solution of fatty acid analog (prepared in various concentrations using absolute ethanol) was added to the culture so that the final concentration of the compound was 100-500 μM (T=0). Ten microliters of ethanol alone was added to one 10 ml culture which served as the negative control. Amphotericin B (AmB; in the form of Fungizone, Squibb) was added (final concentration=55 μM) to another culture which served as the positive control. At T=0 and 0.5-24 h after addition of fatty acid analog to the subcultures, an aliquot was removed for determining the density of the subculture at 600 nm. Cell viability was determined at each of these time points by (i) serially diluting the aliquot in 0.15M NaCl and counting cell number in a hemocytometer and (ii) plating 2-3 of the dilutions in triplicate onto plates of SAB/agar (C. albicans and C. neoformans) or YPD/agar (S. cerevisiae). These plates were subsequently incubated at 30° C. for 24-48 hr to allow for the growth of colonies. The data were expressed as the ratio of viable cells/ml in the fatty acid analog treated subculture to the number of viable cells/ml in the negative (ethanol) control culture.

[2] = system: S. cerevisiae N-myristoylproteins; assay: Metabolic labeling of cellular N-myristoylproteins with tritiated fatty acids; assay type: cell-based; details: tritiated analog, 1 h, 30° C.
Method: (§3) Cells were labeled for 1 h with fatty acids of equal specific activity. Total cellular proteins were reduced, denatured and subjected to SDS-PAGE. Gels were treated overnight with 1 N hydrocylamine (pH 10) at room temperature followed by EN^3 HANCE. Fluorography was performed at -80° C. The exposure time for all gels was identical (2 weeks) as was the total amount of cellular protein added to each lane (100 μg).
(§4) Analysis of the incorporation of exogenous fatty acids into cellular proteins--Cultures of S. cerevisiae YM2061, C. albicans B311, and C. neoformans L210425 were grown overnight at 30° C. in YPD or SAB broth. In the morning, C. albicans and C. neoformans were diluted to an A600 =0.6. All cultures were subsequently shaken at 30° C. until they achieved an A600 =1.2. A 5 ml aliquot of each culture was then incubated at 30° C. with 100 μCi/ml of either [9,10(n)^3 H]myristate (NEN Research Products, Dupont, Boston, Mass.); [6,7(n)^3 H]4-oxatetradecanoate; [9,10(n)^3 H]6-oxatetradecanoate;[9,10(n)^3 H]11-oxatetradecanoate; or [10,11(n)^3 H]13-oxatetradecanoate (the final specific activity of all tritiated fatty acids=30 Ci/mmol, their final concentration=3.3 μM). The cultures were then chilled on ice for 5 min and the cells harvested by centrifugation at 4000×g for 5 min. The pellet was washed by gentle vortexing in 1 ml of phosphate buffered saline (PBS, maintained at 4° C.). The yeast cells were then pelleted by centrifugation (as above) and broken open by vortexing with 500 μm glass beads in a 200 μl solution containing 240 mM Tris-HCl, pH 6.8, 2% SDS, 0.4% β-mercaptoethanol, 0.002% bromophenol blue, and 10% glycerol. The solution was then boiled for 5 min and cellular debris was removed by centrifugation at 12,000×g for 10 min. One hundred μg [Lowry et al., J. Biol. Chem. 193, 265-275 (1951)] of lysate protein from each sample was subjected to denaturation, reduction and electrophoresis through 12% polyacrylamide gels containing 0.1% SDS [Laemmli, Nature 227, 680-685 (1970)]. Duplicate gels were incubated overnight with 1M Tris, pH 7.4, or 1N hydroxylamine, pH 10. Fluorography was performed by treating gels with EN^3 HANCE (NEN Research Products, Dupont) and, following drying, exposing them to Kodak XAR film at -80° C.

[3] = target: T1, human myristoylCoA:protein N-myristoyltransferase (NMT) (Homo sapiens, UniProt P30419); details: cited from earlier work
T1 sequence (P30419 1-496): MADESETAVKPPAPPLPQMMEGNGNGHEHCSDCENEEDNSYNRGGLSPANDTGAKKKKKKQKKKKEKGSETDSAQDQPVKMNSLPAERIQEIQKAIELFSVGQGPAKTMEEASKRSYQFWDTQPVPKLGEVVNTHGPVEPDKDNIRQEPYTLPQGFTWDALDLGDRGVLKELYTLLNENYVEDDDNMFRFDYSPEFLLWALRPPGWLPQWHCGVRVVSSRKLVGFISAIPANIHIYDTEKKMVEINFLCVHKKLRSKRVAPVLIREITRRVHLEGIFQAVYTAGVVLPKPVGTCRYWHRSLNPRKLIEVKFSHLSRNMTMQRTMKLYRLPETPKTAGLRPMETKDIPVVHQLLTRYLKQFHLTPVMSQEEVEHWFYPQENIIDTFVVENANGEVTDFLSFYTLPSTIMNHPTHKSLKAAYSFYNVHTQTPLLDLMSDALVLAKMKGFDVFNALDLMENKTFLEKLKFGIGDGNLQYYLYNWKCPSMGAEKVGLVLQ

[4] = system: human acyl CoA synthetase; details: cited from earlier work
HIV-1 = details: cited from earlier work
C. neoformans [5] = assay: Growth of C. neoformans cultures (absorbance at 600 nm); assay type: cell-based, Cryptococcus neoformans; details: single 300 μM dose, exponential phase, 30° C., SAB, up to 24 h
Method: as §1
as §2, with “Amphotericin B (AmB; in the form of Fungizone, Squibb) was added (final concentration=55 μM) to another culture which served as the positive control. At T=0 and 0.5-24 h after addition of fatty acid analog to the subcultures, an aliquot was removed for determining the density of the subculture at 600 nm.” left out, “These plates were subsequently incubated at 30° C. for 24-48 hr to allow for the growth of colonies.” left out, “culture. […]” for “culture.”

[6] = system: C. albicans N-myristoylproteins; assay: Metabolic labeling of cellular N-myristoylproteins with tritiated fatty acids; assay type: cell-based; details: tritiated analog, 1 h, 30° C.
Method: as §3, §4

[7] = system: C. neoformans N-myristoylproteins; assay: as above; assay type: cell-based; details: tritiated analog, 1 h, 30° C.
Method: as §3, §4

[8] = system: a variety of fungal species, including C. albicans; details: Sabouraud dextrose agar; cited from earlier work

SMILES: COCCCCCCCCCCCC(=O)O [O13, 13-oxatetradecanoic acid]
- fungicidal / fungistatic effect on C. neoformans (C. neoformans [1]): no measurable effect on the growth
- incorporation into the 55 kDa Gpal polypeptide [2]: not
- labeling of the 20 kDa Arfs [2]: comparable intensity
- substrate for human NMT [3]: is a substrate
- substrate for human acyl CoA synthetase [4]: is a substrate
- HIV-1 replication (HIV-1; acutely and chronically infected human T-lymphocyte cell lines): inhibits HIV-1 replication
- cellular toxicity at HIV-1 inhibiting doses (HIV-1; human T-lymphocyte cell lines): do not cause cellular toxicity

SMILES: CCCCCCCCOCCCCC(=O)O [O6, 6-Oxatetradecanoic acid]
- effect on growth of C. neoformans, as determined by optical density (C. neoformans [5]): intermediate degrees of growth retardation
- time needed to produce the decrease in viable cells (C. neoformans [1]): 4 h
- fungicidal / fungistatic effect on C. neoformans (C. neoformans [1]): fungicidal
- log reduction at 300 µM (C. neoformans [1]): 1
- labeling of C. albicans N-myristoylproteins versus [3H]myristate [6]: barely labeled
- labeling of C. neoformans N-myristoylproteins versus [3H]myristate [7]: more intense labeling of 20 and 16 kDa C. neoformans N-myristoylproteins than did myristate
- labeling of S. cerevisiae N-myristoylproteins versus [3H]myristate [2]: failed to label

SMILES: CCCCCCCCCCCOCC(=O)O [O3, 3-oxatetradecanoic acid]
- effect on growth of C. neoformans, as determined by optical density (C. neoformans [5]): intermediate degrees of growth retardation
- fungicidal / fungistatic effect on C. neoformans (C. neoformans [1]): fungicidal
- log reduction at 300 µM (C. neoformans [1]): 1
- effect on growth of fungal species [8]: inhibited growth

SMILES: CCCCCCCCOCC(=O)O [3-oxaundecanoic acid, reference compound]
- effect on growth of fungal species [8]: broadest spectrum and highest potency
